# Experimental data from ChEMBL document CHEMBL1944528, “Design, synthesis and CoMFA studies of N1-amino acid substituted 2,4,5-triphenyl imidazoline derivatives as p53-MDM2 binding inhibitors” (Bioorg Med Chem, 2012).
# Experiments:
# HL-60 = assay: Antiproliferative activity against human HL60 cells after 72 hrs by MTT assay; type: functional, cell-based
# PC-3 = assay: Antiproliferative activity against human PC3 cells after 72 hrs by MTT assay; type: functional, cell-based
# SW-620 = assay: Antiproliferative activity against human SW620 cells after 72 hrs by MTT assay; type: functional, cell-based
# A549 = assay: Antiproliferative activity against human A549 cells after 72 hrs by MTT assay; type: functional, cell-based
# HCT-116 = assay: Antiproliferative activity against human HCT116 cells after 72 hrs by MTT assay; type: functional, cell-based
# [1] = target: Tumour suppressor p53/oncoprotein Mdm2 (Homo sapiens, UniProt Q00987); assay: Competitive inhibition of MDM2/P53 interaction after 1 hr by fluorescence polarization assay; type: protein assay
# Tumour suppressor p53/oncoprotein Mdm2, sequence (P04637 whole entry): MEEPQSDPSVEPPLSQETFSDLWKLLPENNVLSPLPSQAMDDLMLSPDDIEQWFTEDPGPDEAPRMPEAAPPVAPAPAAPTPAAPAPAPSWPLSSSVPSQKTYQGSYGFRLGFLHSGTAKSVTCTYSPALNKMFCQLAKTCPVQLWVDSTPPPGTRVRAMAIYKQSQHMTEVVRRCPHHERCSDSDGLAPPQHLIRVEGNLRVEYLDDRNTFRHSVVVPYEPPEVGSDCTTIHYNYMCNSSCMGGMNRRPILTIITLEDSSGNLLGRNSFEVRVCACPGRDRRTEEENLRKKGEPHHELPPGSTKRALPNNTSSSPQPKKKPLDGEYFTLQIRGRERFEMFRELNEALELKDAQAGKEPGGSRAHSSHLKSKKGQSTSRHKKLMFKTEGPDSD
# Tumour suppressor p53/oncoprotein Mdm2, sequence (Q00987 whole entry): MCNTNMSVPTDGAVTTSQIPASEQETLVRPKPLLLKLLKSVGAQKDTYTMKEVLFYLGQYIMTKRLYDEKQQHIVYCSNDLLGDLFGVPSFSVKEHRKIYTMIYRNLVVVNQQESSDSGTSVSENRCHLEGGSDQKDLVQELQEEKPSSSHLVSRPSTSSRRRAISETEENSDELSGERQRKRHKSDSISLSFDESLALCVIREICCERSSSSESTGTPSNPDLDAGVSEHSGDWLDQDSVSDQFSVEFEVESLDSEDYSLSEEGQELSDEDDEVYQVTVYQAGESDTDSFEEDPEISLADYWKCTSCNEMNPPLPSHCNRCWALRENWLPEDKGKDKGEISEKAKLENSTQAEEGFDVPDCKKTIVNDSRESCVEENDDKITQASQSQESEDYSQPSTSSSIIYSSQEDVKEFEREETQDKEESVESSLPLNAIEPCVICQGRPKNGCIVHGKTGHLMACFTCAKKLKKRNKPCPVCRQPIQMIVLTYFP
# [2] = target: Tumour suppressor p53/oncoprotein Mdm2 (Homo sapiens) (UniProt P04637+Q00987); assay: Ratio of nutlin-1 IC50 to compound IC50 for MDM2 expressed in Escherichia coli BL-21 and P53 binding interaction after 1 hr by fluorescence polarization competitive binding assay
# Tumour suppressor p53/oncoprotein Mdm2 (Homo sapiens), sequence (P04637 whole entry, looked up): as the sequence (P04637 whole entry) above
# Tumour suppressor p53/oncoprotein Mdm2 (Homo sapiens), sequence (Q00987 whole entry, looked up): as the sequence (Q00987 whole entry) above
# [3] = Homo sapiens, HL-60, 72 h, read-out: IC50
# [4] = Homo sapiens, PC-3, 72 h, read-out: IC50
# [5] = Homo sapiens, SW-620, 72 h, read-out: IC50
# [6] = Homo sapiens, A549, 72 h, read-out: IC50
# [7] = Homo sapiens, HCT-116, 72 h, read-out: IC50
Compound,IC50 (HL-60; [3]) [µM],IC50 (PC-3; [4]) [µM],IC50 (SW-620; [5]) [µM],IC50 (A549; [6]) [µM],IC50 (HCT-116; [7]) [µM],IC50 ([1]; read-out: IC50) [µM],IC50 (HL-60; hl-60),IC50 (PC-3; pc-3),IC50 (SW-620; sw-620),IC50 (A549; a549),IC50 (HCT-116; hct-116),IC50 ([1]; read-out: pIC50 (converted)) [µM],Ratio IC50 [2]
CCOC(=O)CNC(=O)N1C(c2ccc(OC)cc2OC(C)C)=N[C@H](c2ccc(Cl)cc2)[C@@H]1c1ccc(Cl)cc1,2.93,6.89,3.88,3.63,4.74,4.29,–,–,–,–,–,–,–
CCN(CC)C(=O)[C@H](C)NC(=O)N1C(c2ccc(OC)cc2OC(C)C)=N[C@H](c2ccc(Cl)cc2)[C@@H]1c1ccc(Cl)cc1,4.22,5.32,4.6,3.31,2.01,12.6,–,–,–,–,–,–,–
COc1ccc(C2=N[C@H](c3ccc(Cl)cc3)[C@H](c3ccc(Cl)cc3)N2C(=O)N[C@@H](C)C(=O)N2CCN(C)CC2)c(OC(C)C)c1,–,–,–,–,–,5.96,Not Active,Not Active,Not Active,Not Active,Not Active,–,–
COc1ccc(C2=N[C@H](c3ccc(Cl)cc3)[C@H](c3ccc(Cl)cc3)N2C(=O)NCCC(=O)N2CCOCC2)c(OC(C)C)c1,3.6,7.58,5.89,3.96,3.78,2.23,–,–,–,–,–,–,–
CCN(CC)C(=O)[C@@H](C)NC(=O)N1C(c2ccc(OC)cc2OC(C)C)=N[C@H](c2ccc(Cl)cc2)[C@@H]1c1ccc(Cl)cc1,8.48,16.8,8.56,> 50,7.53,5.01,–,–,–,–,–,–,–
COc1ccc(C2=N[C@H](c3ccc(Cl)cc3)[C@H](c3ccc(Cl)cc3)N2C(=O)N[C@H](C)C(=O)N2CCN(C)CC2)c(OC(C)C)c1,3.17,6.74,2.74,2.97,3.71,5.96,–,–,–,–,–,–,–
CCN(CC)C(=O)CCCNC(=O)N1C(c2ccc(OC)cc2OC(C)C)=N[C@H](c2ccc(Cl)cc2)[C@@H]1c1ccc(Cl)cc1,6.93,7.54,6.45,1.38,4.26,4.18,–,–,–,–,–,–,–
CCOC(=O)[C@H](C)NC(=O)N1C(c2ccc(OC)cc2OC(C)C)=N[C@H](c2ccc(Cl)cc2)[C@@H]1c1ccc(Cl)cc1,–,–,–,–,–,0.84,Not Active,Not Active,Not Active,Not Active,Not Active,–,–
COc1ccc(C2=N[C@H](c3ccc(Cl)cc3)[C@H](c3ccc(Cl)cc3)N2C(=O)N[C@@H](C)C(=O)O)c(OC(C)C)c1,–,–,–,–,–,3.39,Not Active,Not Active,Not Active,Not Active,Not Active,–,–
COc1ccc(C2=N[C@H](c3ccc(Cl)cc3)[C@H](c3ccc(Cl)cc3)N2C(=O)NCCC(=O)O)c(OC(C)C)c1,–,–,–,–,–,1.07,Not Active,Not Active,Not Active,Not Active,Not Active,–,–
CCOC(=O)CCNC(=O)N1C(c2ccc(OC)cc2OC(C)C)=N[C@H](c2ccc(Cl)cc2)[C@@H]1c1ccc(Cl)cc1,7.82,8.59,9.41,14.3,9.22,3.36,–,–,–,–,–,–,–
COc1ccc(C2=N[C@H](c3ccc(Cl)cc3)[C@H](c3ccc(Cl)cc3)N2C(=O)NCC(=O)N2CCN(C)CC2)c(OC(C)C)c1,3.29,3.55,6.17,3.62,4.49,20.6,–,–,–,–,–,–,–
COc1ccc(C2=N[C@H](c3ccc(Cl)cc3)[C@H](c3ccc(Cl)cc3)N2C(=O)N[C@H](C)C(=O)O)c(OC(C)C)c1,6.7,5.59,9.2,1.67,5.95,3.27,–,–,–,–,–,–,–
CCN(CC)C(=O)CCNC(=O)N1C(c2ccc(OC)cc2OC(C)C)=N[C@H](c2ccc(Cl)cc2)[C@@H]1c1ccc(Cl)cc1,4.62,7.26,3.13,4.03,6.39,0.65,–,–,–,–,–,–,–
COc1ccc(C2=NC(c3ccc(Cl)cc3)C(c3ccc(Cl)cc3)N2C(=O)N2CCN(C(C)=O)CC2)c(OC(C)C)c1 (stereo not given),19.5,40.6,33.7,24,20.5,–,–,–,–,–,–,–,–
COc1ccc(C2=N[C@H](c3ccc(Cl)cc3)[C@H](c3ccc(Cl)cc3)N2C(=O)NCC(=O)N2CCCC2)c(OC(C)C)c1,6.11,5.87,2.9,3.13,3.99,10.3,–,–,–,–,–,–,–
COc1ccc(C2=N[C@H](c3ccc(Cl)cc3)[C@H](c3ccc(Cl)cc3)N2C(=O)NCC(=O)N2CCOCC2)c(OC(C)C)c1,2.99,7.02,6.25,10.9,5.63,5.27,–,–,–,–,–,5.75,–
CCOC(=O)CCCNC(=O)N1C(c2ccc(OC)cc2OC(C)C)=N[C@H](c2ccc(Cl)cc2)[C@@H]1c1ccc(Cl)cc1,5.81,6.2,8.02,3.25,6.65,1.66,–,–,–,–,–,–,–
COc1ccc(C2=N[C@H](c3ccc(Cl)cc3)[C@H](c3ccc(Cl)cc3)N2C(=O)NCC(=O)O)c(OC(C)C)c1,5.73,3.9,5.7,0.48,6.07,6.18,–,–,–,–,–,–,–
COc1ccc(C2=N[C@H](c3ccc(Cl)cc3)[C@H](c3ccc(Cl)cc3)N2C(=O)NCCC(=O)N2CCN(C)CC2)c(OC(C)C)c1,2.93,6.83,5.99,5.95,2.36,5.83,–,–,–,–,–,–,–
COc1ccc(C2=N[C@H](c3ccc(Cl)cc3)[C@H](c3ccc(Cl)cc3)N2C(=O)NCC(=O)N2CCN(C(C)=O)CC2)c(OC(C)C)c1,5.48,7.1,8.13,3.42,6.41,5.43,–,–,–,–,–,–,–
COc1ccc(C2=N[C@H](c3ccc(Cl)cc3)[C@H](c3ccc(Cl)cc3)N2C(=O)NCCCC(=O)O)c(OC(C)C)c1,5.73,3.9,5.7,0.48,6.07,2.05,–,–,–,–,–,–,–
CCN(CC)C(=O)CNC(=O)N1C(c2ccc(OC)cc2OC(C)C)=N[C@H](c2ccc(Cl)cc2)[C@@H]1c1ccc(Cl)cc1,6.08,5.84,12.3,4.33,5.1,9.41,–,–,–,–,–,–,–
CCOC(=O)[C@@H](C)NC(=O)N1C(c2ccc(OC)cc2OC(C)C)=N[C@H](c2ccc(Cl)cc2)[C@@H]1c1ccc(Cl)cc1,3.78,2.2,5.52,0.31,3.73,0.59,–,–,–,–,–,–,8
